This is an account of results in patent US9643933B2, “Compounds useful as antibiotic tolerance inhibitors” (priority 2013, dated 2017).

Test [1] deals with Pyocyanin. The experiment in a line: Pyocyanin Inhibition Assay. The format is cell-based, P. aeruginosa, strain PA14. The conditions noted are these: Pseudomonas aeruginosa, PA14, 24 h, read-out: Pyocyanin Inhibition No. IC50 (μM). As for the experimental part: Test compounds are dissolved in DMSO at 10 mM and stored at −20° C. until needed. Seven test concentrations from 0.0032 micromolar to 31.6 micromolar are used for each compound.
P. aeruginosa, strain PA14, is inoculated into 5 mL of LB broth in a 15-mL sterile glass culture tube and incubated overnight at 37° C. under shaking (˜240 rpm). The overnight culture is then diluted in LB Broth to give an OD600=0.04 (T0 culture). Colony Forming Units (CFU)/mL of the overnight culture and T0 culture are determined by a series of 1:10 serial dilutions in sterile saline. 4×20 μL of each dilution is seeded on LB agar plates and incubated at 35±2° C. for 20 hours. CFU/mL is determined from the dilution that gives 2 to 50 colonies/20 μL.
For concentration response curve (CRC) experiments, internal standard, 2-((5-nitro-1H-indol-2-yl)thio)-N-(4-phenoxyphenyl)acetamide, a compound previously identified as an MvfR inhibitor (see Example 1 of US 2014-0066454 (WO 2012/116010)), and test compounds are serially diluted in DMSO to 200 times each final concentration (0.5% DMSO fmal), and 1 μL/well is dispensed in duplicate into 2 mL wells of a 96-well deep well plate. 200 μL/well of T0 culture are added to each internal standard/test compound well. Wells containing only T0 culture (200 200 μL/well) are used to determine pyocyanin control level and wells containing only LB broth (blank wells) are also included in the plate.
The plate is sealed and incubated at 37° C. under shaking (˜700 rpm) using a microtiter shaker for 24 hours. At the end of the incubation period, the plate is centrifuged at 4,000 g for 40 minutes at room temperature, 100 μL/well of the supernatant is transferred to a 96-microtiter PS flat-bottom plate, and absorbance at 690 nm is determined using SPECTROstar® Nano microplate reader. Pyocyanin concentration (M) is determined using the equation C=A690/(ε×d), where ε is the Pyocyanin extinction coefficient, at A690 nm ε is 4,310 M^−1 cm^−1 and d is the experimentally derived pathlength. The level of pyocyanin in the presence of test compound is expressed as percentage of inhibition with respect to the control. Curve fitting and IC50 determination were carried out using a four-parameter logistic model using GraphPad Prism v.5.

Test [2] deals with PQS. The experiment in a line: Assay for PQS Inhibition (6 Hour Incubation). The settings on record: Pseudomonas aeruginosa, PA14, 6 h, read-out: PQS (6 hr) IC50 (μM). The format is cell-based, P. aeruginosa PA14 wild-type strain. How it is done: (§1) A concentration range with 7 test concentrations is chosen for each test compound. Typically concentration ranges for the PQS and HHQ assays are from 0.03 to 31.6 μM. Compounds are prepared in solvent, usually DMSO, at either 200 or 500 times the final test concentration.
(§2) P. aeruginosa PA14 wild-type strain is inoculated into 5 ml LB broth in a 15 ml sterile glass culture tube and incubated overnight at 37° C. under shaking (˜240 rpm). After overnight incubation, the bacterial culture is diluted in fresh LB broth to an OD600 nm=0.04, and 5 mL aliquots of the diluted bacterial culture are distributed into 15-mL glass tubes. 10 μL of test compound at 500 times the final test concentration or 25 μL of test compound at 200 times the final test concentration or solvent alone is added to each of the bacterial suspension tubes, and the tubes are incubated at 37° C. under shaking (300 rpm) for 6 hours. At the end of the incubation period, a 0.5 mL aliquot of bacterial suspension is transferred from each 15 mL glass tube, after shaking, to a 2 mL polypropylene vial. 0.5 mL of methanol-containing D4-PQS (deuterated-PQS), D4-HHQ (deuterated-HHQ) and 2% acetic acid are added to each 2 mL vial and each vial is vigorously shaken. The vials are then centrifuged for 5 minutes at 12,000 g, and 200 μL of supernatant from each vial is transferred to a glass vial (vials crimp 0.2 mL), and the sealed vials are kept at 4° C. until LC-MS/MS analysis is performed. HAQs quantification is carried out analyzing samples in discrete batches together with spiked standards and blank samples. Calibration curves are constructed from HAQs standards, and respective deuterated forms are used as Internal Standards (IS), to calculate the concentration of analytes in the sample and improve the precision of the assay. The back-calculated concentrations of the calibration standards from the calibration curve shall be within ±20% of the nominal values, the range of the analytical method is determined, and the lower and upper limit of quantification specified.
(§3) Liquid chromatography separations are performed using Agilent HP1100 system (Agilent Technologies) coupled with a CTC PAL Autosampler (CTC Analytics AG). Chromatographic retention is obtained using a monolithic column (Chromolith® RP-18, 50×4.6 mm). The solvent system consists of water containing 0.1% (v/v) formic acid (A) and acetonitrile containing 0.1% (v/v) formic acid (B). The gradient elution profile is chosen as follows: 0 min: 70% A (1500 μL/min), 0.3 min: 70% A (1500 μL/min), 1.3 min: 5% A (2500 μL/min), 1.6 min: 5% A (2500 μL/min).
(§4) The MS/MS analysis is performed with a API4000 series mass spectrometer (AB Sciex™) operating in Multiple Reaction Monitoring (MRM) mode and equipped with a TIS ion source. The specific ions monitored are PQS (m/z 260→m/z 175), D4-PQS (m/z 264→m/z 179), HHQ (m/z 244→m/z 159) and D4-HHQ (m/z 248→m/z 163). PQS and HHQ in presence of different test compound concentrations are expressed as percentage of inhibition of the basal level in control samples.

For test [3], the system named is HHQ. The experiment in a line: Assay for HHQ Inhibition (6 Hour Incubation). Format: cell-based, P. aeruginosa PA14 wild-type strain. The settings on record: Pseudomonas aeruginosa, PA14, 6 h, read-out: HHQ (6 hr) IC50 (μM). How it is done:
as §1, §2, §3, §4

Test [4] deals with PQS. The experiment in a line: PQS Inhibition Assay (24 Hour Incubation). The conditions noted are these: Pseudomonas aeruginosa, PA14, 24 h, read-out: PQS (24 hr) IC50 (μM). Format: cell-based, P. aeruginosa PA14 wild-type strain. How it is done:
Test compounds are dissolved in DMSO at 10 mM and stored at −20° C. until needed. Seven test concentrations from 0.0032 micromolar to 31.6 micromolar are used for each compound. P. aeruginosa PA14 wild-type strain is inoculated into 5 mL LB broth in a 15-mL sterile glass culture tube and incubated overnight at 37° C. under shaking (˜240 rpm). The overnight culture is then diluted in LB Broth to give an OD600=0.04 (T0 culture). Colony Forming Units (CFU)/mL of the overnight culture and T0 culture are determined by a series of 1:10 serial dilutions in sterile saline. 4×20 μL of each dilution is seeded on LB agar plates and incubated at 35±2° C. for 20 hours. CFU/mL is determined from the dilution that gives 2 to 50 colonies/20 μL.
For concentration response curve (CRC) experiments, internal standard (2-((5-nitro-1H-indol-2-yl)thio)-N-(4-phenoxyphenyl)acetamide)) and test compounds are serially diluted in DMSO to give 200 times of each final concentration (0.5% DMSO final), and 1 μL/well is dispensed in duplicate into 2-mL wells of a 96 well deep well plate. 200 μL/well of T0 culture is added to each internal standard/test compound well used to determine PQS control level. Wells containing only LB broth (blank wells) are also included in the plate.
The plate is sealed and incubated at 37° C. for 24 hours under shaking (˜700 rpm) using a microtiter shaker. At the end of the incubation period, 150 μL/well of the deep well plate culture are transferred in a new non-sterile plate, and 150 μL/well of methanol containing tetra-deuterated PQS (D4-PQS) and 2% acetic acid are added to each well. The plate is sealed, shaken at high speed for 5 minutes and centrifuged at 4,000 g for 40 minutes at room temperature. 100 μL/well of the supernatant is then transferred to glass vials (vials crimp 0.2 mL) and kept at 4° C. until LC-MS/MS analysis.
PQSs quantification is carried out by analyzing samples in discrete batches together with spiked standards and blank samples.
Calibration curves are constructed from PQS standards, and respective deuterated PQS is used as an Internal Standards (IS) to calculate the concentration of analytes in the sample and improve the precision of the assay. The back-calculated concentrations of the calibration standards from the calibration curve shall be within ±20% of the nominal values, the range of the analytical method is determined, and the lower and upper limit of quantification specified.
Liquid chromatography separations are performed using an Agilent HP1100 system (Agilent Technologies) coupled with a CTC PAL Autosampler (CTC Analytics AG). Chromatographic retention is obtained using a monolithic column (Chromolith® RP-18, 50×4.6 mm). The solvent system consists of water containing 0.1% (v/v) formic acid (A) and acetonitrile containing 0.1% (v/v) formic acid (B). The gradient elution profile is chosen as follows: 0 min: 70% A (1500 μL/min), 0.3 min: 70% A (1500 μL/min), 1.3 min: 5% A (2500 μL/min), 1.6 min: 5% A (2500 μL/min).
The MS/MS analysis is performed with an API4000 series mass spectrometer (AB Sciex™) operating in Multiple Reaction Monitoring (MRM) mode and equipped with a TIS ion source. The specific ions monitored are PQS (m/z 260→m/z 175) and D4-PQS (m/z 264→m/z 179). The computer systems used in this study to acquire and quantify data may be an Analyst™ v1.5.
PQS in the presence of different concentrations of test compound are expressed as percentage of inhibition of the basal level in control samples. Curve fitting and IC50 estimations are carried out using a four parameter logistic model using GraphPad Prism v.5 program.

As for `O=C(CNc1nc2ccc(Cl)cc2[nH]1)Nc1ccc(Oc2cccnc2)cc1` [Compound 159, 2-((5-chloro-1H-benzo[d]imidazol-2-yl)amino)-N-(4-(pyridin-3-yloxy)phenyl)acetamide], the IC50 (as a rule, the concentration needed to halve the response being measured) in test [1] was 0.1 to 1 µM; in test [2], under 1 µM; in test [3], under 1 µM.

With `Cc1cncc(Oc2ccc(NC(=O)CSc3nc4cc(Cl)ccc4[nH]3)cc2)c1` [Compound 81, 2-(5-Chloro-1H-benzo[d]imidazol-2-ylthio)-N-(4-(5-methylpyridin-3-yloxy)phenyl)acetamide], the figures for the concentration for half-maximal inhibition (IC50) in test [1] and in test [4] were under 0.1 µM and under 1 µM, respectively.

For `Cn1c(SCC(=O)Nc2ccc(Oc3ccccc3)cc2)nc2cc([N+](=O)[O-])ccc21` [Compound 23], the values for the IC50 in test [1] and in test [4] were 1 to 10 µM and over 10 µM, respectively.

Regarding `N#Cc1ccc(C(=O)NCCSc2nc3cc(Cl)ccc3[nH]2)cc1` [Compound 88, N-(2-((5-chloro-1H-benzo[d]imidazol-2-yl)thio)ethyl)-4-cyanobenzamide], the IC50 in test [1] and in test [4] was over 10 µM in each case.

As for `N#Cc1ccc(NC(=O)COc2nc3ccc([N+](=O)[O-])cc3[nH]2)cc1` [Compound 149, N-(4-cyanophenyl)-2-((6-nitro-1H-benzo[d]imidazol-2-yl)oxy)acetamide], the IC50 in test [1] is 1 to 10 µM; in test [4], over 10 µM.

Turning to `O=C(NCCSc1nc2cc(Cl)ccc2[nH]1)c1ccc(Oc2cccnc2)cc1` [Compound 87, N-(2-((5-chloro-1H-benzo[d]imidazol-2-yl)thio)ethyl)-4-(pyridin-3-yloxy)benzamide], the IC50 in test [1] and in test [4] was over 10 µM in each case.

Take `O=S(=O)(CSc1nc2cc(Cl)ccc2[nH]1)Nc1ccc(Oc2cccnc2)cc1` [Compound 91, 1-((5-chloro-1H-benzo[d]imidazol-2-yl)thio)-N-(4-(pyridin-3-yloxy)phenyl)methanesulfonamide]: the IC50 in test [1] and in test [4] was over 10 µM each time.

Turning to `N#Cc1ccc(NC(=O)CSc2nc3ccc(-c4ncccn4)cc3[nH]2)cc1` [Compound 113], the IC50 in test [1] and in test [4] was over 10 µM each time.

As for `COC(=O)c1ccc2[nH]c(SCC(=O)Nc3ccc(C#N)cc3)nc2c1` [Compound 112], the IC50 in test [1] and in test [4] was over 10 µM in each case.
